Source: patent US20070270393A1, “Methods and compositions for modulation of sleep cycle” (priority 2006, published 2007)

Tests used:
Format in all cases: in vivo, human
[1] = tested on: subjects with insomnia; assay: Polysomnogram measures, double-blinded placebo controlled study of 5 days mifepristone in insomnia; conditions: for % REM, average / % S1, average / % S2, average / % S3, average / % S4, average / Arousal, average / NUAW, average / Rem Lat, average / Rem density, average / S3 Lat, average / SE (S2, S3, S4), average / SE (S3, S4), average / SPT, average / TST, average / WASO, average: Rx Ave (n = 5)
[2] = tested on: HPA axis activity in healthy control subject; assay: 2 days of a GR antagonist in healthy control subject under constant routine conditions, salivary cortisol; conditions: 400 mg for two consecutive days, single healthy subject, FIG. 5
Description: In a separate experiment, the longitudinal effects of 2 days of a GR antagonist on melatonin and HPA axis activity was measured in healthy control subject during an inpatient stay under constant routine conditions. […] Salivary cortisol, ACTH and dim light melatonin were measured the evening/morning before and on the second evening/morning of medication. The design was created to include measures of the phase of night-time DLMO as well as measures of the morning response of the HPA axis, including timing of cortisol acrophase. The design was formulated to ascertain circadian phase shifting in a controlled setting with healthy subjects (as might occur in jet-lag or shift work). […] Salivary melatonin samples were insufficient.

[3] = tested on: HPA axis activity (cortisol, ACTH) and melatonin in chronic insomnia subjects; assay: Overnight melatonin (dim light), cortisol and ACTH levels in the insomnia study; conditions: after 5 days treatment in the outpatient setting, FIG. 3
[4] = 2 Wk Post Tx rel to Baseline, Tx Delta
[5] = 2 Wk Post Tx rel to Baseline, Tx rel to Plac
[6] = Day 5 Tx rel to Baseline, Tx Delta
[7] = Day 5 Tx rel to Baseline, Tx rel to Plac

CC#C[C@]1(O)CC[C@H]2[C@@H]3CCC4=CC(=O)CCC4=C3[C@@H](c3ccc(N(C)C)cc3)C[C@@]21C [mifepristone, 17-beta-hydroxy-11-beta-(4-dimethyl-aminophenyl)-17-alpha-(1-propynyl)-estra-4,9-dien-3-one]
% REM (percentage REM sleep) [1, 4]: 1.63% | % S1 (percentage stage 1 sleep) [1, 4]: −39.19% | % S2 (percentage stage 2 sleep) [1, 4]: −2.68% | % S3 (percentage stage 3 sleep) [1, 4]: 1.09% | % S4 (percentage stage 4 sleep) [1, 4]: −1.48% | Arousal [1, 4]: 5.2 | NUAW (number of awakenings) [1, 4]: 0 | Rem Lat (minutes to first epoch of REM after sleep onset) [1, 4]: -4 min | Rem p [1, 4]: 1.972 | S3 Lat (latency to onset of stage 3 sleep) [1, 4]: -0.85 min | SEB (S2, S3, S4) (total combined minutes of stage 2, 3 and 4 per total sleep minutes) [1, 4]: 2.57 | SEC (S3, S4) (total combined minutes of stage 3, 4 per total sleep minutes) [1, 4]: 1.19 | SPT [1, 4]: 28.1 min | TST (total combined minutes of sleep) [1, 4]: 38.5 min | WASO (wake after sleep onset) [1, 4]: -10.4 min | % REM (percentage REM sleep) [1, 5]: 1.31% | % S1 (percentage stage 1 sleep) [1, 5]: −0.01% | % S2 (percentage stage 2 sleep) [1, 5]: −5.05% | % S3 (percentage stage 3 sleep) [1, 5]: 1.45% | % S4 (percentage stage 4 sleep) [1, 5]: −0.98% | Arousal [1, 5]: −3.7 | NUAW (number of awakenings) [1, 5]: 1.5 | Rem Lat (minutes to first epoch of REM after sleep onset) [1, 5]: 39.5 min | Rem p [1, 5]: 2.73 | S3 Lat (latency to onset of stage 3 sleep) [1, 5]: 23.1 min | SEB (S2, S3, S4) (total combined minutes of stage 2, 3 and 4 per total sleep minutes) [1, 5]: −1.34 | SEC (S3, S4) (total combined minutes of stage 3, 4 per total sleep minutes) [1, 5]: 2.02 | SPT [1, 5]: 29.55 min | TST (total combined minutes of sleep) [1, 5]: 21.65 min | WASO (wake after sleep onset) [1, 5]: 7.85 min | % REM (percentage REM sleep) [1, 6]: −9.33% | % S1 (percentage stage 1 sleep) [1, 6]: −38.34% | % S2 (percentage stage 2 sleep) [1, 6]: 6.44% | % S3 (percentage stage 3 sleep) [1, 6]: 0.76% | % S4 (percentage stage 4 sleep) [1, 6]: −0.01% | Arousal [1, 6]: 0.9 | NUAW (number of awakenings) [1, 6]: 3.3 | Rem Lat (minutes to first epoch of REM after sleep onset) [1, 6]: 61.15 min | Rem p [1, 6]: −0.826 | S3 Lat (latency to onset of stage 3 sleep) [1, 6]: 7.05 min | SEB (S2, S3, S4) (total combined minutes of stage 2, 3 and 4 per total sleep minutes) [1, 6]: −2.13 | SEC (S3, S4) (total combined minutes of stage 3, 4 per total sleep minutes) [1, 6]: −7.3 | SPT [1, 6]: 28.69 min | TST (total combined minutes of sleep) [1, 6]: 17.05 min | WASO (wake after sleep onset) ([1]; Day 5 Tx rel to Baseline, Tx Delta, 600 mg/day in the morning, 5 days): 16.4 min | % REM (percentage REM sleep) [1, 7]: −9.69% | % S1 (percentage stage 1 sleep) [1, 7]: 1.76% | % S2 (percentage stage 2 sleep) [1, 7]: 3.9% | % S3 (percentage stage 3 sleep) [1, 7]: 0.71% | % S4 (percentage stage 4 sleep) [1, 7]: 0.42% | Arousal [1, 7]: −3.8 | NUAW (number of awakenings) [1, 7]: 5 | Rem Lat (minutes to first epoch of REM after sleep onset) [1, 7]: 99.6 min | Rem p [1, 7]: 0.654 | S3 Lat (latency to onset of stage 3 sleep) [1, 7]: 19.35 min | SEB (S2, S3, S4) (total combined minutes of stage 2, 3 and 4 per total sleep minutes) [1, 7]: −6.85 | SEC (S3, S4) (total combined minutes of stage 3, 4 per total sleep minutes) [1, 7]: −7.45 | SPT [1, 7]: 29.39 min | TST (total combined minutes of sleep) [1, 7]: -3.75 min | WASO (wake after sleep onset) [1, 7]: 37.85 min | % REM, average ([1]; T2): 11.62% | % S1, average ([1]; T2): 15.48% | % S2, average ([1]; T2): 60.26% | % S3, average ([1]; T2): 7.63% | % S4, average ([1]; T2): 4.36% | Arousal, average ([1]; T2): 105.70 | NUAW, average ([1]; T2): 27.60 | Rem Lat, average ([1]; T2): 137.95 min | Rem density, average ([1]; T2): 7.16 | S3 Lat, average ([1]; T2): 24.80 min | SE (S2, S3, S4), average ([1]; T2): 83.34 | SE (S3, S4), average ([1]; T2): 24.94 | SPT, average ([1]; T2): 469.24 min | TST, average ([1]; T2): 390.65 min | WASO, average ([1]; T2): 83.35 min | % REM, average ([1]; T3): 22.58% | % S1, average ([1]; T3): 14.63% | % S2, average ([1]; T3): 51.14% | % S3, average ([1]; T3): 7.96% | % S4, average ([1]; T3): 2.89% | Arousal, average ([1]; T3): 110.00 | NUAW, average ([1]; T3): 24.30 | Rem Lat, average ([1]; T3): 72.80 min | Rem density, average ([1]; T3): 9.95 | S3 Lat, average ([1]; T3): 16.90 min | SE (S2, S3, S4), average ([1]; T3): 88.04 | SE (S3, S4), average ([1]; T3): 33.43 | SPT, average ([1]; T3): 468.65 min | TST, average ([1]; T3): 412.10 min | WASO, average ([1]; T3): 56.55 min | total sleep time (TST), in words ([1]; at 2 weeks post treatment): increased | REM latency (RL), in words ([1]; most acutely during active treatment): increased | cortisol [2]: rise | timing of the morning acrophase of cortisol [2]: delay | DLMO (time at which melatonin reaches 20 pg/ml) [3]: delay
